Data taken from patent US20260285898A1, “SAPONIN DERIVATIVES AS ADJUVANTS AND PHOTOAFFINITY PROBES” (ASOCIACIÓN CENTRO DE INVESTIGACIÓN COOPERATIVE EN …, priority 2023, published 2026).

Assay: Initial toxicity assessment in mice by median weight loss after injection
Settings: monitored after each injection (1st, 2nd and 3rd booster dose); s.c., saponin 20 μg/mouse with OVA 10 μg/mouse; FIG. 1
Procedure: Groups of five mice (C57BL/6, female, 6-8 weeks old) were vaccinated subcutaneously three times […] (days 0, 14, and 28) with endotoxin-free OVA (EndoFit™ Ovalbumin, Invitrogen) (10 μg/mouse) in phosphate-buffered saline (PBS, 100 μL) either alone (no-adjuvant control group) or with the synthetic saponins (20 μg/mouse). To analyze the antibody responses over time, mice were bled via the submandibular vein at the indicated pre- (day −1) and post-vaccination timepoint (day 21), and by cardiac puncture at the experimental endpoint (day 35). Blood was collected in BD Microtainer® tubes (Clot Activator/SST™ Gel) and centrifuged at 7500 g for 10 min, after which serum was harvested and stored at −20° C. until further analysis.
As a standard initial overall assessment of the potential toxicity of the saponins, in addition to visual inspection for potential signs of discomfort, the weight loss of each group of mice was monitored before and after each immunization. The median percentage weight change at different timepoints post-injection was determined and analyzed.
Mouse weight loss was monitored after each injection (1st, 2nd and 3rd (booster dose)).

Compound: CC1OC(OC2C(OC(=O)C34CCC(C)(C)CC3C3=CCC5C6(C)CCC(OC7OC(C(=O)O)C(O)C(OC8OCC(O)C(O)C8O)C7OC7OC(CO)C(O)C(O)C7O)C(C)(C=O)C6CCC5(C)C3(C)CC4O)OC(CO)C(NC(=O)CCCCCNC(=O)c3ccc(C(=O)c4ccc(C(=O)NCCOCCOCCOCCOCCOCCNC(=O)CCCCC5SCC6NC(=O)NC65)cc4)cc3)C2O)C(O)C(O)C1OC1OCC(O)C(O)C1O (stereo not shown) [BTS-25-BP]
- Mouse weight loss (toxicity): about 2%
